# Legend:
# Crabgrass = assay: Test 3 postemergence weed control; assay type: in vivo, Digitaria spp; details: scale 0-100
# Description: Seeds of crabgrass (Digitaria spp), guinea grass (Panicum maximum) and narrowleaf panicum (P. maximum) were planted in 15-cm plastic pots. The weeds were treated postemergence with compound I, formulated in a non-phytotoxic solvent, when the plants had 3 or more leaves and had tillered. The degree of weed control was visually rated 17 days after compound application (DAT). Control ratings were based on a scale of 0 to 100 where 0 = no effect, 20 = minimal control and 100 = complete control.
# Wild radish = assay: Test 10 postemergence safety to crops and weed control; assay type: in vivo, Raphanus raphanistrum; details: 16 g/ha, scale 0-100
# Description: The object of these tests was to evaluate the compound of this invention for postemergence safety to crops and weed control. Seedling and budded Macedine grapes were grown in 11.4-cm pots. Flax, green foxtail (Setaria viridis), "Morex" barley, wild oats (Avena fatua), "Era" wheat, annual ryegrass (Lolium multiflorum), wild radish (Raphanus raphanistrum), rape, sunflower, chickweed (Stellaria media) and wild buckwheat (Polygonum convolvulus) were seeded in windowsill pots.
# The plants were sprayed postemergence with Compound I in a non-phytotoxic solvent. Plants were visually rated 15 and 27 days after treatment (DAT). Injury and weed control ratings were based on the scale of 0 to 100 where 0 = no effect, 20 minimal control and 100 = complete control.
# Broadleaf signalgrass = assay: Test 11 windowsill flats, postemergence; assay type: in vivo, Brachiaria platyphylla; details: Postemergence 32 g/ha, 0.25% X-77 surfactant, scale 0-100
# Description: (§1) Budded citrus seedlings were planted in 30-liter plastic pots which were also seeded with sandbur, guineagrass, narrowleaf panicum, common ragweed, yellow nutsedge, purple nutsedge and bindweed. Compound I was applied preemergence and postemergence to the weeds. Treatments were sprayed to simulate the trunk-to-trunk herbicide application method used in some citrus groves. The compound was also applied postemergence to weeds grown in windowsill flats. The flats were filled with planting medium and seeded with morningglory (Ipomoea spp.). purple nutsedge (Cyperus rotundus), pigweed (Amaranthus spp.), bindweed (Convolvulus spp.), narrowleaf panicum (Panicum maximum), common ragweed (Ambrosia artemisiifolia), sandbur (Cenchrus echinatus), itchgrass (Rottboellia exaltata), johnsongrass (Sorghum halepense), guineagrass (Panicum maximum), smooth crabgrass (Digitaria ischaemum), broadleaf signalgrass (Brachiaria platyphylla), bermudagrass (Cynodon dactylon), goosegrass (Eleusine indica), large crabgrass (Digitaria sanguinalis) and yellow nutsedge (Cyperus esculentus).
# (§2) The compound was formulated and sprayed with 0.25% X-77 surfactant in water. Plants were visually rated 21 and 29 days after treatment and compared with appropriate controls. Injury ratings were based on the scale of 0 to 100, where 0 indicates no effect, 20 indicates minimum effect and 100 indicates complete control. […]
# Secale cereale = assay: Test 1 greenhouse, postemergence; assay type: in vivo; details: 21 days, scale 0-100
# Description: (§3) Seeds of Bromus tectorum, Kochia scoparia, Salsoa kali, Avena fatua, Convolvulus arvensis, Secale cereale, Setaria viridis and Triticum aestivum were placed in 26-cm plastic pans containing a pasteurized sandy loam soil (pH 6.5, 1% organic matter). Plantings were maintained in the greenhouse for 18-28 days at which time the postemergence treatments were applied using a nonphytotoxic solvent as the carrier for the herbicide. The preemergence segment of the test was seeded immediately before herbicide application using Bromus tectorum, Kochia scoparia, Polygonum convolvulus, Salsoa kali, Avena fatua, Convolvulus arvensis, Secale cereale, Setaria viridis, Aegilops cylindrica, Amaranthus retroflexus, Chenopodium album, Hordeum vulgare, Triticum aestivum, Sorghum bicolor, and Zea mays. All treatments were maintained in the greenhouse for an additional 21 days at which time visual assessment of weed control was determined using a scale of 0 to 100 for each species where 0 represented no control and 100 represented complete control.
# Triticum aestivum = assay: Test 1 greenhouse, postemergence; assay type: in vivo; details: 21 days, scale 0-100
# Description: as §3
# Setaria viridis = assay: Test 1 greenhouse, postemergence; assay type: in vivo; details: 21 days, scale 0-100
# Description: as §3
# Salsoa kali = assay: Test 1 greenhouse, postemergence; assay type: in vivo; details: 21 days, scale 0-100
# Description: as §3
# Avena fatua = assay: Test 1 greenhouse, postemergence; assay type: in vivo; details: 21 days, scale 0-100
# Description: as §3
# Convolvulus arvensis = assay: Test 1 greenhouse, postemergence; assay type: in vivo; details: 21 days, scale 0-100
# Description: as §3
# Kochia scoparia = assay: Test 1 greenhouse, postemergence; assay type: in vivo; details: 21 days, scale 0-100
# Description: as §3
# Bromus tectorum = assay: Test 1 greenhouse, postemergence; assay type: in vivo; details: 21 days, scale 0-100
# Description: as §3
# Boston fern = assay: Test 9 postemergence; assay type: in vivo, Nephrolepis exalata; details: scale 0-100
# Description: Plastic windowsill pots containing planting medium were seeded with bahiagrass, bindweed (Convolvulus spp), guinea grass (Panicum maximum), large crabgrass (Digitaria sanguinalis) and pigweed (Amaranthus spp). Individual 15-cm plastic pots contained sandbur (Cenchrus echinatus), Mikania cordata, Boston fern (Nephrolepis exalata), quackgrass (Agropyron repens), elephantgrass (Pennisetum purpureum) and sowthistle (Sonchus spp) plants.
# Plants were treated postemergence with Compound I formulated in a non-phytotoxic solvent. Plants were visually rated 22 days after treatment (DAT). Injury and weed control ratings were based on the scale of 0 to 100 where 0 = no effect, 20 = minimal control and 100 = complete control.
# Narrowleaf panicum = assay: Test 11 citrus pots, postemergence to the weeds; assay type: in vivo, Panicum maximum; details: Postemergence 32 g/ha, 0.25% X-77 surfactant, scale 0-100
# Description: as §1, §2
# Guineagrass = assay: Test 11 citrus pots, postemergence to the weeds; assay type: in vivo, Panicum maximum; details: Postemergence 32 g/ha, 0.25% X-77 surfactant, scale 0-100
# Description: as §1, §2
structure (smiles),measurement,setting,value
"COC(=O)c1cccnc1S(=O)(=O)NC(=O)Nc1nc(OC)cc(OC)n1 [Compound I, 2-[[(4,6-dimethoxypyrimidin-2-yl)aminocarbonyl]aminosulfonyl]-3-pyridinecarboxylic acid, methyl ester]",Control Rating 17 DAT,Crabgrass; 8 g/ha,50
same,Control Rating 17 DAT,Crabgrass; 16 g/ha,70
same,Control Rating 17 DAT,Crabgrass; 32 g/ha,100
same,Plant Injury Rating 15 DAT,Wild radish,100
same,Injury ratings,Broadleaf signalgrass,100
same,visual assessment of weed control,Secale cereale; 4 g/ha,70
same,visual assessment of weed control,Secale cereale; 8 g/ha,100
same,visual assessment of weed control,Secale cereale; 16 g/ha,100
same,visual assessment of weed control,Secale cereale; 32 g/ha,100
same,visual assessment of weed control,Secale cereale; 64 g/ha,100
same,visual assessment of weed control,Secale cereale; 125 g/ha,100
same,visual assessment of weed control,Triticum aestivum; 4 g/ha,90
same,visual assessment of weed control,Triticum aestivum; 8 g/ha,100
same,visual assessment of weed control,Triticum aestivum; 16 g/ha,100
same,visual assessment of weed control,Triticum aestivum; 32 g/ha,100
same,visual assessment of weed control,Triticum aestivum; 64 g/ha,100
same,visual assessment of weed control,Triticum aestivum; 125 g/ha,100
same,visual assessment of weed control,Setaria viridis; 4 g/ha,90
same,visual assessment of weed control,Setaria viridis; 8 g/ha,90
same,visual assessment of weed control,Setaria viridis; 16 g/ha,100
same,visual assessment of weed control,Setaria viridis; 32 g/ha,100
same,visual assessment of weed control,Setaria viridis; 64 g/ha,100
same,visual assessment of weed control,Setaria viridis; 125 g/ha,100
same,visual assessment of weed control,Salsoa kali; 4 g/ha,100
same,visual assessment of weed control,Salsoa kali; 8 g/ha,100
same,visual assessment of weed control,Salsoa kali; 16 g/ha,100
same,visual assessment of weed control,Salsoa kali; 32 g/ha,100
same,visual assessment of weed control,Salsoa kali; 64 g/ha,100
same,visual assessment of weed control,Salsoa kali; 125 g/ha,100
same,visual assessment of weed control,Avena fatua; 4 g/ha,80
same,visual assessment of weed control,Avena fatua; 8 g/ha,80
same,visual assessment of weed control,Avena fatua; 16 g/ha,100
same,visual assessment of weed control,Avena fatua; 32 g/ha,100
same,visual assessment of weed control,Avena fatua; 64 g/ha,100
same,visual assessment of weed control,Avena fatua; 125 g/ha,100
same,visual assessment of weed control,Convolvulus arvensis; 4 g/ha,90
same,visual assessment of weed control,Convolvulus arvensis; 8 g/ha,100
same,visual assessment of weed control,Convolvulus arvensis; 16 g/ha,100
same,visual assessment of weed control,Convolvulus arvensis; 32 g/ha,100
same,visual assessment of weed control,Convolvulus arvensis; 64 g/ha,100
same,visual assessment of weed control,Convolvulus arvensis; 125 g/ha,100
same,visual assessment of weed control,Kochia scoparia; 4 g/ha,100
same,visual assessment of weed control,Kochia scoparia; 8 g/ha,100
same,visual assessment of weed control,Kochia scoparia; 16 g/ha,100
same,visual assessment of weed control,Kochia scoparia; 32 g/ha,100
same,visual assessment of weed control,Kochia scoparia; 64 g/ha,100
same,visual assessment of weed control,Kochia scoparia; 125 g/ha,100
same,visual assessment of weed control,Bromus tectorum; 4 g/ha,100
same,visual assessment of weed control,Bromus tectorum; 8 g/ha,100
same,visual assessment of weed control,Bromus tectorum; 16 g/ha,100
same,visual assessment of weed control,Bromus tectorum; 32 g/ha,100
same,visual assessment of weed control,Bromus tectorum; 64 g/ha,100
same,visual assessment of weed control,Bromus tectorum; 125 g/ha,100
same,Plant Injury Rating 22 DAT,Boston fern; 8 g/ha,40
same,Plant Injury Rating 22 DAT,Boston fern; 16 g/ha,50
same,Plant Injury Rating 22 DAT,Boston fern; 32 g/ha,80
same,Injury ratings,Narrowleaf panicum,90
same,Injury ratings,Guineagrass,100

# Source: patent publication EP0314302A2, “Herbicidal o-carbomethoxy-sulfonylureas” (E.I. DU PONT DE NEMOURS AND COMPANY, priority 1987, dated 1989)
